# Laboratory results published in ChEMBL document CHEMBL1201861, “Genomics of Drug Sensitity in Cancer screening data, Wellcome Trust Sanger Institute”.
# Assays:
# Assay in all cases: cells
# CP66-MEL = assay type: functional, cell-based, Homo sapiens; conditions: Homo sapiens, CP66-MEL;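 note: growth inhibition of CP66-MEL cells determined in a cell viability assay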
# Description: SANGER: Inhibition of human CP66-MEL cell growth in a cell viability assay.
# D283 Med = assay type: functional, cell-based, Homo sapiens; conditions: Homo sapiens, D283 Med
# Description: SANGER: Inhibition of human D-283MED cell growth in a cell viability assay.
# DSH1 = assay type: functional, cell-based, Homo sapiens; conditions: Homo sapiens, DSH1;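 note: growth inhibition of human DSH1 cells, measured with a cell viability readout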
# Description: SANGER: Inhibition of human DSH1 cell growth in a cell viability assay.
# ES3 = assay type: functional, cell-based, Homo sapiens; conditions: Homo sapiens, ES3;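 note: growth inhibition of ES3 cells, read out with a cell viability assay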
# Description: SANGER: Inhibition of human ES3 cell growth in a cell viability assay.
# ES8 = assay type: functional, cell-based, Homo sapiens; conditions: Homo sapiens, ES8;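 note: growth inhibition of human ES8 cells, read out with a cell viability assay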
# Description: SANGER: Inhibition of human ES8 cell growth in a cell viability assay.
# EW-11 = assay type: functional, cell-based, Homo sapiens; conditions: Homo sapiens, EW-11;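 note: growth inhibition of human EW-11 cells, measured with a cell viability assay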
# Description: SANGER: Inhibition of human EW-11 cell growth in a cell viability assay.
# EW-24 = assay type: functional, cell-based, Homo sapiens; conditions: Homo sapiens, EW-24;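 note: human EW-24 cancer cell line, growth inhibition read out via a cell viability assay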
# Description: SANGER: Inhibition of human EW-24 cell growth in a cell viability assay.
# EW-3 = assay type: functional, cell-based, Homo sapiens; conditions: Homo sapiens, EW-3;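 note: cell viability assay read-out, IC50 reflects inhibition of growth of the EW-3 cells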
# Description: SANGER: Inhibition of human EW-3 cell growth in a cell viability assay.
# GB-1 = assay type: functional, cell-based, Homo sapiens; conditions: Homo sapiens, GB-1;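 note: growth of GB-1 cells judged by a viability assay, IC50 marks the concentration inhibiting growth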
# Description: SANGER: Inhibition of human GB-1 cell growth in a cell viability assay.
# GR-ST = assay type: functional, cell-based, Homo sapiens; conditions: Homo sapiens, GR-ST
# Description: SANGER: Inhibition of human GR-ST cell growth in a cell viability assay.
# HCC2218 = assay type: functional, cell-based, Homo sapiens; conditions: Homo sapiens, HCC2218;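 note: cell viability assay read-out, with IC50 given as the concentration that inhibits growth of the cell line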
# Description: SANGER: Inhibition of human HCC2218 cell growth in a cell viability assay.
# HCE-T = assay type: functional, cell-based, Homo sapiens; conditions: Homo sapiens, HCE-T;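 note: cell viability assay read-out, reporting inhibition of HCE-T cell growth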
# Description: SANGER: Inhibition of human HCE-T cell growth in a cell viability assay.
# HEL = assay type: functional, cell-based, Homo sapiens; conditions: Homo sapiens, HEL;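 note: growth inhibition of HEL cells, read out with a cell viability assay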
# Description: SANGER: Inhibition of human HEL cell growth in a cell viability assay.
# IA-LM = assay type: functional, cell-based, Homo sapiens; conditions: Homo sapiens, IA-LM;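 note: cell viability assay measuring growth inhibition of human IA-LM cells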
# Description: SANGER: Inhibition of human IA-LM cell growth in a cell viability assay.
# IST-MEL1 = assay type: functional, cell-based, Homo sapiens; conditions: Homo sapiens, IST-MEL1;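 note: growth inhibition of the cell line, read out with a cell viability assay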
# Description: SANGER: Inhibition of human IST-MEL1 cell growth in a cell viability assay.
# JVM-3 = assay type: functional, cell-based, Homo sapiens; conditions: Homo sapiens, JVM-3;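 note: growth inhibition of human JVM-3 cells, read out with a cell viability assay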
# Description: SANGER: Inhibition of human JVM-3 cell growth in a cell viability assay.
# KARPAS-45 = assay type: functional, cell-based, Homo sapiens; conditions: Homo sapiens, KARPAS-45;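 note: inhibition of cell line growth, read out through a viability assay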
# Description: SANGER: Inhibition of human KARPAS-45 cell growth in a cell viability assay.
# KM12 = assay type: functional, cell-based, Homo sapiens; conditions: Homo sapiens, KM12;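 note: KM12 cell growth inhibition, read out with a cell viability assay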
# Description: SANGER: Inhibition of human KM12 cell growth in a cell viability assay.
# KNS-81-FD = assay type: functional, cell-based, Homo sapiens; conditions: Homo sapiens, KNS-81-FD;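 note: growth inhibition of KNS-81-FD cells, read out with a cell viability assay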
# Description: SANGER: Inhibition of human KNS-81-FD cell growth in a cell viability assay.
# LC-2-ad = assay type: functional, cell-based, Homo sapiens; conditions: Homo sapiens, LC-2-ad;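 note: growth inhibition of human LC-2-ad cells, read out with a cell viability assay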
# Description: SANGER: Inhibition of human LC-2-ad cell growth in a cell viability assay.
# LNCaP-Clone-FGC = assay type: functional, cell-based, Homo sapiens; conditions: Homo sapiens, LNCaP-Clone-FGC
# Description: SANGER: Inhibition of human LNCaP-Clone-FGC cell growth in a cell viability assay.
# LU-134-A = assay type: functional, cell-based, Homo sapiens; conditions: Homo sapiens, LU-134-A
# Description: SANGER: Inhibition of human LU-134-A cell growth in a cell viability assay.
# MC116 = assay type: functional, cell-based, Homo sapiens; conditions: Homo sapiens, MC116;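 note: growth inhibition of MC116 cells, read out with a cell viability assay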
# Description: SANGER: Inhibition of human MC116 cell growth in a cell viability assay.
# MEG-01 = assay type: functional, cell-based, Homo sapiens; conditions: Homo sapiens, MEG-01;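 note: growth inhibition of MEG-01 cells, read out by a cell viability assay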
# Description: SANGER: Inhibition of human MEG-01 cell growth in a cell viability assay.
# NCI-H23 = assay type: functional, cell-based, Homo sapiens; conditions: Homo sapiens, NCI-H23;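 note: cell viability assay measuring growth inhibition of NCI-H23 cells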
# Description: SANGER: Inhibition of human NCI-H23 cell growth in a cell viability assay.
# NCI-H526 = assay type: functional, cell-based, Homo sapiens; conditions: Homo sapiens, NCI-H526;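 note: growth inhibition of the human NCI-H526 cell line, measured by a cell viability assay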
# Description: SANGER: Inhibition of human NCI-H526 cell growth in a cell viability assay.
# NCI-H747 = assay type: functional, cell-based, Homo sapiens; conditions: Homo sapiens, NCI-H747;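 note: growth inhibition of human NCI-H747 cells, read out by a cell viability assay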
# Description: SANGER: Inhibition of human NCI-H747 cell growth in a cell viability assay.
# NCI-N87 = assay type: functional, cell-based, Homo sapiens; conditions: Homo sapiens, NCI-N87;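 note: growth inhibition of human NCI-N87 cells, read out with a cell viability assay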
# Description: SANGER: Inhibition of human NCI-N87 cell growth in a cell viability assay.
# NKM-1 = assay type: functional, cell-based, Homo sapiens; conditions: Homo sapiens, NKM-1;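 note: growth inhibition of NKM-1 cells, read out with a cell viability assay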
# Description: SANGER: Inhibition of human NKM-1 cell growth in a cell viability assay.
# NOMO-1 = assay type: functional, cell-based, Homo sapiens; conditions: Homo sapiens, NOMO-1;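 note: growth inhibition of human NOMO-1 cells measured by a cell viability assay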
# Description: SANGER: Inhibition of human NOMO-1 cell growth in a cell viability assay.
# RH-1 = assay type: functional, cell-based, Homo sapiens; conditions: Homo sapiens, RH-1;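 note: growth inhibition of human RH-1 cells, read out with a cell viability assay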
# Description: SANGER: Inhibition of human RH-1 cell growth in a cell viability assay.
# SH-4 = assay type: functional, cell-based, Homo sapiens; conditions: Homo sapiens, SH-4;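 note: growth inhibition of SH-4 cells, read out with a cell viability assay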
# Description: SANGER: Inhibition of human SH-4 cell growth in a cell viability assay.
# SHP77 = assay type: functional, cell-based, Homo sapiens, SHP-77; conditions: Homo sapiens, SHP77;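 note: growth inhibition of human SHP-77 cells measured by a cell viability assay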
# Description: SANGER: Inhibition of human SHP-77 cell growth in a cell viability assay.
# SK-MEL-2 = assay type: functional, cell-based, Homo sapiens; conditions: Homo sapiens, SK-MEL-2;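 note: growth inhibition of human SK-MEL-2 cells measured with a cell viability assay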
# Description: SANGER: Inhibition of human SK-MEL-2 cell growth in a cell viability assay.
# SK-N-DZ = assay type: functional, cell-based, Homo sapiens; conditions: Homo sapiens, SK-N-DZ;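 note: growth inhibition of the cancer cell line, read out through a viability assay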
# Description: SANGER: Inhibition of human SK-N-DZ cell growth in a cell viability assay.
# SK-N-FI = assay type: functional, cell-based, Homo sapiens; conditions: Homo sapiens, SK-N-FI;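 note: cell viability assay measuring growth inhibition of human SK-N-FI cells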
# Description: SANGER: Inhibition of human SK-N-FI cell growth in a cell viability assay.
# SK-UT-1 = assay type: functional, cell-based, Homo sapiens; conditions: Homo sapiens, SK-UT-1;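 note: growth inhibition of SK-UT-1 cells, measured by a cell viability assay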
# Description: SANGER: Inhibition of human SK-UT-1 cell growth in a cell viability assay.
# SW 954 = assay type: functional, cell-based, Homo sapiens; conditions: Homo sapiens, SW 954;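 note: growth inhibition of SW954 human cancer cells, read out as cell viability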
# Description: SANGER: Inhibition of human SW954 cell growth in a cell viability assay.
# TE-1 = assay type: functional, cell-based, Homo sapiens; conditions: Homo sapiens, TE-1
# Description: SANGER: Inhibition of human TE-1 cell growth in a cell viability assay.
# A388 = assay type: functional, cell-based, Homo sapiens; conditions: Homo sapiens, A388;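 note: growth inhibition of human A388 cells, read out with a cell viability assay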
# Description: SANGER: Inhibition of human A388 cell growth in a cell viability assay.
# A4-Fuk = assay type: functional, cell-based, Homo sapiens; conditions: Homo sapiens, A4-Fuk;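 note: growth inhibition of A4-Fuk cells, read out by a cell viability assay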
# Description: SANGER: Inhibition of human A4-Fuk cell growth in a cell viability assay.
# A498 = assay type: functional, cell-based, Homo sapiens; conditions: Homo sapiens, A498;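 note: growth inhibition of human A498 cells, read out with a cell viability assay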
# Description: SANGER: Inhibition of human A498 cell growth in a cell viability assay.
# ACN = assay type: functional, cell-based, Homo sapiens; conditions: Homo sapiens, ACN;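 note: growth inhibition of the human ACN cell line, read out via cell viability testing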
# Description: SANGER: Inhibition of human ACN cell growth in a cell viability assay.
# BE-13 = assay type: functional, cell-based, Homo sapiens; conditions: Homo sapiens, BE-13;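 note: growth inhibition of human BE-13 cells, measured with a cell viability assay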
# Description: SANGER: Inhibition of human BE-13 cell growth in a cell viability assay.
# TE-12 = assay type: functional, cell-based, Homo sapiens; conditions: Homo sapiens, TE-12;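 note: growth inhibition of TE-12 cells, read out by a cell viability assay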
# Description: SANGER: Inhibition of human TE-12 cell growth in a cell viability assay.
# U-266 = assay type: functional, cell-based, Homo sapiens; conditions: Homo sapiens, U-266
# Description: SANGER: Inhibition of human U-266 cell growth in a cell viability assay.
# U-87 MG = assay type: functional, cell-based, Homo sapiens, U-87MG ATCC; conditions: Homo sapiens, U-87 MG;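 note: growth inhibition of the cells measured with a viability assay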
# Description: SANGER: Inhibition of human U-87-MG cell growth in a cell viability assay.
# CCRF-CEM = assay type: functional, cell-based, Homo sapiens; conditions: Homo sapiens, CCRF-CEM;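 note: inhibition of CCRF-CEM cell growth, measured by a cell viability assay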
# Description: SANGER: Inhibition of human CCRF-CEM cell growth in a cell viability assay.
# COLO-668 = assay type: functional, cell-based, Homo sapiens; conditions: Homo sapiens, COLO-668
# Description: SANGER: Inhibition of human COLO-668 cell growth in a cell viability assay.
smiles,measurement,setting,value
CCC/C=C/C=C/C(=O)O[C@H]1/C(=C/C(=O)OC)C[C@H]2C[C@H]([C@@H](C)O)OC(=O)C[C@H](O)C[C@@H]3C[C@H](OC(C)=O)C(C)(C)[C@](O)(C[C@@H]4C/C(=C/C(=O)OC)C[C@H](/C=C/C(C)(C)[C@]1(O)O2)O4)O3 [BRYOSTATIN 1],IC50,CP66-MEL,> 8 nM
same,IC50,D283 Med,> 8 nM
same,IC50,DSH1,> 8 nM
same,IC50,ES3,> 8 nM
same,IC50,ES8,> 8 nM
same,IC50,EW-11,> 8 nM
same,IC50,EW-24,> 8 nM
same,IC50,EW-3,> 8 nM
same,IC50,GB-1,> 8 nM
same,IC50,GR-ST,> 8 nM
same,IC50,HCC2218,> 8 nM
same,IC50,HCE-T,> 8 nM
same,IC50,HEL,> 8 nM
same,IC50,IA-LM,> 8 nM
same,IC50,IST-MEL1,> 8 nM
same,IC50,JVM-3,> 8 nM
same,IC50,KARPAS-45,> 8 nM
same,IC50,KM12,> 8 nM
same,IC50,KNS-81-FD,> 8 nM
same,IC50,LC-2-ad,> 8 nM
same,IC50,LNCaP-Clone-FGC,> 8 nM
same,IC50,LU-134-A,> 8 nM
same,IC50,MC116,> 8 nM
same,IC50,MEG-01,> 8 nM
same,IC50,NCI-H23,> 8 nM
same,IC50,NCI-H526,> 8 nM
same,IC50,NCI-H747,> 8 nM
same,IC50,NCI-N87,> 8 nM
same,IC50,NKM-1,> 8 nM
same,IC50,NOMO-1,> 8 nM
same,IC50,RH-1,> 8 nM
same,IC50,SH-4,> 8 nM
same,IC50,SHP77,> 8 nM
same,IC50,SK-MEL-2,> 8 nM
same,IC50,SK-N-DZ,> 8 nM
same,IC50,SK-N-FI,> 8 nM
same,IC50,SK-UT-1,> 8 nM
same,IC50,SW 954,> 8 nM
same,IC50,TE-1,> 8 nM
same,IC50,A388,> 8 nM
same,IC50,A4-Fuk,> 8 nM
same,IC50,A498,> 8 nM
same,IC50,ACN,> 8 nM
same,IC50,BE-13,> 8 nM
same,IC50,TE-12,> 8 nM
same,IC50,U-266,> 8 nM
same,IC50,U-87 MG,> 8 nM
same,IC50,CCRF-CEM,> 8 nM
same,IC50,COLO-668,> 8 nM
CS(=O)(=O)c1ccc(C(=O)Nc2ccc(Cl)c(-c3ccccn3)c2)c(Cl)c1 [VISMODEGIB],IC50,CP66-MEL,> 10000 nM
same,IC50,D283 Med,> 10000 nM
same,IC50,DSH1,> 10000 nM
same,IC50,ES3,> 10000 nM
same,IC50,ES8,> 10000 nM
same,IC50,EW-11,> 10000 nM
same,IC50,EW-24,> 10000 nM
same,IC50,GB-1,> 10000 nM
same,IC50,GR-ST,> 10000 nM
same,IC50,HCE-T,1320 nM
same,IC50,HEL,> 10000 nM
same,IC50,IA-LM,> 10000 nM
same,IC50,IST-MEL1,> 10000 nM
same,IC50,JVM-3,> 10000 nM
same,IC50,KARPAS-45,> 10000 nM
same,IC50,KM12,> 10000 nM
same,IC50,KNS-81-FD,> 10000 nM
same,IC50,LC-2-ad,> 10000 nM
same,IC50,LNCaP-Clone-FGC,> 10000 nM
same,IC50,LU-134-A,> 10000 nM
same,IC50,MC116,> 10000 nM
same,IC50,MEG-01,> 10000 nM
same,IC50,NCI-H23,> 10000 nM
same,IC50,NCI-H526,> 10000 nM
same,IC50,NCI-H747,> 10000 nM
same,IC50,NCI-N87,> 10000 nM
same,IC50,NKM-1,> 10000 nM
same,IC50,NOMO-1,> 10000 nM
same,IC50,RH-1,> 10000 nM
same,IC50,SH-4,> 10000 nM
same,IC50,SHP77,> 10000 nM
same,IC50,SK-MEL-2,> 10000 nM
same,IC50,SK-N-DZ,> 10000 nM
same,IC50,SK-N-FI,> 10000 nM
same,IC50,SK-UT-1,> 10000 nM
same,IC50,SW 954,> 10000 nM
same,IC50,TE-1,> 10000 nM
same,IC50,A388,> 10000 nM
same,IC50,A4-Fuk,> 10000 nM
same,IC50,A498,> 10000 nM
same,IC50,ACN,8500 nM
same,IC50,BE-13,> 10000 nM
same,IC50,TE-12,> 10000 nM
same,IC50,U-266,> 10000 nM
same,IC50,U-87 MG,> 10000 nM
same,IC50,CCRF-CEM,> 10000 nM
same,IC50,COLO-668,> 10000 nM
